# Patent US6569881B1, “Substituted benzimidazole, the production thereof and the use thereof as means against parasitic protozoa” (Bayer Aktiengesellschaft, priority 1999, dated 2003)
# Tests used:
# Assay type in all cases: in vivo, chicken chicks
# Eimeria maxima = test: Cage experiments coccidiosis/chicks, Eimeria maxima part of the mixed infection; conditions: for Efficacy against Eimeria maxima (grade): second symbol of cell; for Efficacy against Eimeria maxima (grade): key: 2 = complete action; 1 = weak action; 0 = inactive; D = death
# Method: (§1) The efficacy of the compounds according to the invention can be confirmed, for example, in cage experiments using the following experimental arrangement, in which the animals are treated with the respective individual components and with the mixtures of the individual components.
# (§2) An active compound-containing feed is prepared in such a way that the required amount of active compound is thoroughly mixed with a nutritionally balanced animal feed, e.g. with the chick feed indicated below.
# (§3) 8 to 12 day-old male chicken chicks raised under coccidea-free conditions (e.g. LSL Brinkschulte/Senden) receive the compounds according to the invention (test substances) from 3 days before (day -3) the infection (=a.i.) until 8 (9) days after the infection (=p.i.) with the feed in the concentration indicated in ppm. Three animals are kept in each cage. Per dose, one to a number of groups of this type are employed. Infection is carried out by means of a stomach tube directly into the crop using approximately 100,000 sporulated oocysts of Eimeria acervulina and with in each case approximately 30,000 oocysts of E. maxima and 40,000 sporulated oocysts of E. tenella. These are highly virulent strains. The exact infectious dose is adjusted such that if possible one of three experimentally infected untreated chicks dies due to infection. For the assessment of the efficacy, the following criteria are taken into consideration: weight increase from the start of the experiment to the end of the experiment, death rate due to infection, macroscopic assessment of the faeces with respect to diarrhoea and excretion of blood on days 5 and 7 p.i. (grade 0 to 6), macroscopic grade of the intestinal mucous membrane, in particular of the cecums (grade 0 to 6) and the oocyst excretion and also the proportion (in %) of the oocysts sporulating within 24 hours. The number of oocysts in the faeces was determined with the aid of the McMaster counting chamber (see Engelbrecht and coworkers “Parasitologische Arbeitsmethoden in Medizin und Veterinärmedizin, [Parasitological working methods in medicine and veterinary medicine] Akademie-Verlag, Berlin (1965)). The individual findings are related to the untreated noninfected control groups and an overall grade is calculated (cf. A. Haberkorn (1986), pp. 263 to 270 in Research in Avian Coccidiosis ed L. R. McDougald, L. P. Joyner, P. L. Long Proceedings of the Georgia Coccidiosis Conference Nov, 18-20, 1985 Athens/Ga. USA).
# (§4) In the columns “dropping scores”, “lesion score” and “oocyst control”, individual details of the action are given.
# Eimeria acervulina = test: Cage experiments coccidiosis/chicks, Eimeria acervulina part of the mixed infection; conditions: for Efficacy against Eimeria acervulina (grade): first symbol of cell; for Efficacy against Eimeria acervulina (grade): key: 2 = complete action; 1 = weak action; 0 = inactive; D = death
# Method: as §1, §2, §3, §4
# Eimeria tenella = test: Cage experiments coccidiosis/chicks, Eimeria tenella part of the mixed infection; conditions: for Efficacy against Eimeria tenella (grade): third symbol of cell; for Efficacy against Eimeria tenella (grade): key: 2 = complete action; 1 = weak action; 0 = inactive; D = death
# Method: as §1, §2, §3, §4
# [1] = test system: Eimeria acervulina, Eimeria maxima and Eimeria tenella; test: Cage experiments coccidiosis/chicks, mixed experimental infection; conditions: for dropping scores / lesion score: grade 0 to 6
# Method: as §1, §2, §3
# In the column “ppm”, the concentration of the active compound employed in the feed is indicated in ppm.
# In the column “mortality”, the percentage of the animals which have died is indicated under % and the number of the animals which have died/animals employed in the experiment is indicated under n.
# In the column “weight % of not inf. control”, the ratio of the weight of the treated animals to the weight of the noninfected control group is indicated.
# as §4
# In the column “% efficacy”, the overall rating is assessed; 0% means no action, 100% means complete action.
Compound,oocyst in % of inf. control max. (Eimeria maxima; 5 ppm in feed) [%],oocyst in % of inf. control max. (Eimeria maxima; 10 ppm in feed) [%],Efficacy against Eimeria maxima (grade) (Eimeria maxima; Dose 5 ppm),Efficacy against Eimeria maxima (grade) (Eimeria maxima; Dose 10 ppm),oocyst in % of inf. control ac. (Eimeria acervulina; 5 ppm in feed) [%],oocyst in % of inf. control ac. (Eimeria acervulina; 10 ppm in feed) [%],Efficacy against Eimeria acervulina (grade) (Eimeria acervulina; Dose 5 ppm),Efficacy against Eimeria acervulina (grade) (Eimeria acervulina; Dose 10 ppm),oocyst in % of inf. control ten. (Eimeria tenella; 5 ppm in feed) [%],oocyst in % of inf. control ten. (Eimeria tenella; 10 ppm in feed) [%],Efficacy against Eimeria tenella (grade) (Eimeria tenella; Dose 5 ppm),Efficacy against Eimeria tenella (grade) (Eimeria tenella; Dose 10 ppm),% efficacy tot. ([1]; 5 ppm in feed) [%],mortality % ([1]; 5 ppm in feed) [%],mortality n (died/employed) ([1]; 5 ppm in feed),oocyst in % of inf. control tot. ([1]; 5 ppm in feed) [%],weight % of not inf. control ([1]; 5 ppm in feed) [%],dropping scores ([1]; 5 ppm in feed),lesion score ([1]; 5 ppm in feed),% efficacy tot. ([1]; 10 ppm in feed) [%],further results
Cc1oc(=O)oc1Cn1c(C(F)(F)F)nc2cc(C(F)(F)F)c(Cl)cc21 [Example 19],>100,13,0,1,>100,5,0,2,>100,5,0,1,7,0,0/3,>100,52,4,6,66,oocyst in % of inf. control max. (Eimeria maxima; 25 ppm in feed): >100%; Efficacy against Eimeria maxima (grade) (Eimeria maxima; Dose 25 ppm): 0; oocyst in % of inf. control ac. (Eimeria acervulina; 25 ppm in feed): >100%; Efficacy against Eimeria acervulina (grade) (Eimeria acervulina; Dose 25 ppm): 0; oocyst in % of inf. control ten. (Eimeria tenella; 25 ppm in feed): >100%; Efficacy against Eimeria tenella (grade) (Eimeria tenella; Dose 25 ppm): 0; mortality % ([1]; 10 ppm in feed): 0%; mortality n (died/employed) ([1]; 10 ppm in feed): 0/3; oocyst in % of inf. control tot. ([1]; 10 ppm in feed): 5%; weight % of not inf. control ([1]; 10 ppm in feed): 75%; dropping scores ([1]; 10 ppm in feed): 3; lesion score ([1]; 10 ppm in feed): 4; % efficacy tot. ([1]; 25 ppm in feed): 7%; mortality % ([1]; 25 ppm in feed): 0%; mortality n (died/employed) ([1]; 25 ppm in feed): 0/3; oocyst in % of inf. control tot. ([1]; 25 ppm in feed): >100%; weight % of not inf. control ([1]; 25 ppm in feed): 56%; dropping scores ([1]; 25 ppm in feed): 6; lesion score ([1]; 25 ppm in feed): 6
Cc1oc(=O)oc1Cn1c(C(F)(F)F)nc2c(C(F)(F)F)cc(C(F)(F)F)cc21 [Example 28],2,0,2,2,2,0,2,2,0,0,2,2,75,0,0/3,1,85,6,1,91,mortality % ([1]; 10 ppm in feed): 0%; mortality n (died/employed) ([1]; 10 ppm in feed): 0/3; oocyst in % of inf. control tot. ([1]; 10 ppm in feed): 0%; weight % of not inf. control ([1]; 10 ppm in feed): 82%; dropping scores ([1]; 10 ppm in feed): 0; lesion score ([1]; 10 ppm in feed): 0; mortality % ([1]; 25 ppm in feed): 100%; mortality n (died/employed) ([1]; 25 ppm in feed): 3/3; dropping scores ([1]; 25 ppm in feed): 0
